Inconclusive results and toxic doses are left out. Cut-off read from the data, not from the text of the source: active = T/C of 150% or more; inactive = T/C below 125%.
System: L1210 leukemia ip in BDF1 mice, survival T/C
Assay: NCI In Vivo Anticancer Drug Screen. Data for tumor model L1210 Leukemia (intraperitoneal) in B6D2F1 (BDF1) mice
Conditions: endpoint: mean survival time, higher = longer survival
Procedure, shortened: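 In this screen, tumor-bearing mice given compound are compared to those given vehicle, and their survival values are reported as a treated-to-control quotient.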

[1] = dose: 100.0 mg/kg/injection, schedule: Q04DX003 (ip), vehicle: Klucel (hydroxypropylcellulose) (HPC)
[2] = dose: 200.0 mg/kg/injection, schedule: Q04DX003 (ip), vehicle: Klucel (hydroxypropylcellulose) (HPC)
[3] = dose: 400.0 mg/kg/injection, schedule: Q04DX003 (ip), vehicle: Klucel (hydroxypropylcellulose) (HPC)
[4] = dose: 50.0 mg/kg/injection, schedule: Q01DX009 (ip), vehicle: Klucel (hydroxypropylcellulose) (HPC)
[5] = dose: 100.0 mg/kg/injection, schedule: Q01DX009 (ip), vehicle: Klucel (hydroxypropylcellulose) (HPC)
[6] = dose: 200.0 mg/kg/injection, schedule: Q01DX009 (ip), vehicle: Klucel (hydroxypropylcellulose) (HPC)
[7] = dose: 400.0 mg/kg/injection, schedule: Q01DX009 (ip), vehicle: Klucel (hydroxypropylcellulose) (HPC)
[8] = dose: 50.0 mg/kg/injection, schedule: Q01DX001 (ip), vehicle: carboxymethylcellulose (CMC)
[9] = dose: 100.0 mg/kg/injection, schedule: Q01DX001 (ip), vehicle: carboxymethylcellulose (CMC)
[10] = dose: 200.0 mg/kg/injection, schedule: Q01DX001 (ip), vehicle: carboxymethylcellulose (CMC)
[11] = dose: 400.0 mg/kg/injection, schedule: Q01DX001 (ip), vehicle: carboxymethylcellulose (CMC)
[12] = dose: 100.0 mg/kg/injection, schedule: Q04DX003 (ip), vehicle: saline with Tween-80
[13] = dose: 400.0 mg/kg/injection, schedule: Q04DX003 (ip), vehicle: saline with Tween-80

Measured: T/C

COc1cc(CC2(C#N)c3ccccc3C=CN2C(=O)c2ccccc2)c(Oc2cc(CC3(C#N)c4ccccc4C=CN3C(=O)c3ccccc3)ccc2OC)cc1OC (stereo unspecified)
inactive: [1] 98 % of control | [2] 93 % of control | [3] 92 % of control

CCn1ncc2c(Nc3ccccc3)c(C(=O)c3ccccc3)cnc21
inactive: [1] 93 % of control | [2] 97 % of control | [3] 97 % of control

CCCCCCCC[Si](Br)(CCCCCCCC)CCCCCCCC
inactive: dose: 75.0 mg/kg/injection, schedule: Q01DX001 (ip), vehicle: acetone 98 % of control | dose: 150.0 mg/kg/injection, schedule: Q01DX001 (ip), vehicle: acetone 93 % of control | dose: 300.0 mg/kg/injection, schedule: Q01DX001 (ip), vehicle: acetone 96 % of control

CCCC[n+]1cccc(C#N)c1
inactive: dose: 18.75 mg/kg/injection, schedule: Q01DX009 (ip), vehicle: saline 92 % of control | dose: 37.5 mg/kg/injection, schedule: Q01DX009 (ip), vehicle: saline 101 % of control | dose: 37.5 mg/kg/injection, schedule: Q04DX003 (ip), vehicle: saline 93 % of control | dose: 75.0 mg/kg/injection, schedule: Q01DX001 (ip), vehicle: saline 98 % of control | dose: 75.0 mg/kg/injection, schedule: Q01DX009 (ip), vehicle: saline 90 % of control | dose: 75.0 mg/kg/injection, schedule: Q04DX003 (ip), vehicle: saline 93 % of control | dose: 150.0 mg/kg/injection, schedule: Q01DX001 (ip), vehicle: saline 95 % of control | dose: 150.0 mg/kg/injection, schedule: Q04DX003 (ip), vehicle: saline 91 % of control

CC(C)(C)C(/C=N/N=C(N)N)=N\N=C(N)N
inactive: dose: 15.0 mg/kg/injection, schedule: Q01DX Z (ip), vehicle: methylcellulose (MC) 105 % of control | dose: 30.0 mg/kg/injection, schedule: Q01DX Z (ip), vehicle: methylcellulose (MC) 91 % of control | dose: 60.0 mg/kg/injection, schedule: Q01DX Z (ip), vehicle: methylcellulose (MC) 94 % of control | dose: 120.0 mg/kg/injection, schedule: Q01DX Z (ip), vehicle: methylcellulose (MC) 91 % of control | dose: 600.0 mg/kg/injection, schedule: Q01DX Z (oral), vehicle: methylcellulose (MC) 110 % of control | dose: 720.0 mg/kg/injection, schedule: Q01DX Z (oral), vehicle: methylcellulose (MC) 98 % of control

Brc1cc(Br)c(-c2c(Br)cc(Br)cc2Br)c(Br)c1
inactive: [4] 111 % of control | [5] 93 % of control | [1] 108 % of control | [6] 101 % of control | [2] 105 % of control | [7] 98 % of control | [3] 95 % of control

COB(CCCCB(OC)OC)OC
inactive: dose: 100.0 mg/kg/injection, schedule: Q01DX009 (ip), vehicle: saline sonified 96 % of control | dose: 100.0 mg/kg/injection, schedule: Q04DX003 (ip), vehicle: saline 100 % of control | dose: 200.0 mg/kg/injection, schedule: Q01DX009 (ip), vehicle: saline sonified 92 % of control | dose: 200.0 mg/kg/injection, schedule: Q04DX003 (ip), vehicle: saline 107 % of control | dose: 400.0 mg/kg/injection, schedule: Q01DX009 (ip), vehicle: saline sonified 87 % of control | dose: 400.0 mg/kg/injection, schedule: Q04DX003 (ip), vehicle: saline 94 % of control

O=C(Nc1ccccc1C(F)(F)F)N(Cc1ccccc1)c1ccccc1
inactive: [5] 93 % of control | [6] 92 % of control | [7] 98 % of control

CC(C)(O)c1cnnn1CCC[CH2][Pb]([c]1ccccc1)([c]1ccccc1)[c]1ccccc1
inactive: [8] 102 % of control | [9] 105 % of control | [10] 102 % of control | [11] 96 % of control

NC(CCn1cnc2c(=O)[nH]cnc21)C(=O)O (stereo unspecified)
inactive: [1] 101 % of control | [2] 102 % of control | [3] 96 % of control

CCCCCCCCCCCCOP(=O)(OCC)OCC
inactive: dose: 100.0 mg/kg/injection, schedule: Q04DX002 (ip), vehicle: saline with Tween-80 88 % of control | dose: 200.0 mg/kg/injection, schedule: Q04DX002 (ip), vehicle: saline with Tween-80 88 % of control | dose: 400.0 mg/kg/injection, schedule: Q04DX002 (ip), vehicle: saline with Tween-80 88 % of control

O=S(=O)(Nc1ccc(F)cc1)c1ccccc1
inactive: [5] 96 % of control | [1] 103 % of control | [6] 102 % of control | [2] 95 % of control | [7] 105 % of control | [3] 93 % of control

O=[N+]([O-])c1cc(NS(=O)(=O)c2ccccc2)ccc1NS(=O)(=O)c1ccccc1
inactive: [4] 90 % of control | [5] 90 % of control | [1] 111 % of control | [6] 93 % of control | [2] 97 % of control | [3] 94 % of control

O=C(/C=C/c1ccc([N+](=O)[O-])cc1)Nc1ccc(S(=O)(=O)F)cc1
inactive: dose: 100.0 mg/kg/injection, schedule: Q01DX001 (ip), vehicle: saline 96 % of control | [5] 94 % of control | dose: 200.0 mg/kg/injection, schedule: Q01DX001 (ip), vehicle: saline 101 % of control | [6] 89 % of control | dose: 400.0 mg/kg/injection, schedule: Q01DX001 (ip), vehicle: saline 100 % of control | [7] 88 % of control

N#Cc1ccccc1COCc1ccccc1
inactive: [5] 102 % of control | [6] 98 % of control | [7] 95 % of control

Nc1ncnc2c1ncn2C1OC(C(=O)NO)C(O)C1O (stereo unspecified)
inactive: dose: 0.78 mg/kg/injection, schedule: Q01DX009 (ip), vehicle: saline 106 % of control | dose: 1.56 mg/kg/injection, schedule: Q01DX005 (ip), vehicle: saline 104 % of control | dose: 1.56 mg/kg/injection, schedule: Q01DX009 (ip), vehicle: saline 123 % of control | dose: 3.12 mg/kg/injection, schedule: Q01DX005 (ip), vehicle: saline 121 % of control

Cc1ccc(C2(O)CC3CCC2(c2ccc(C)cc2)C3)cc1 (stereo unspecified)
inactive: [8] 95 % of control | [9] 101 % of control | [10] 98 % of control | [11] 98 % of control

Cc1ccc(C)c(NC(=O)NC(C)C)c1
inactive: [5] 94 % of control | [1] 96 % of control | [6] 94 % of control | [2] 91 % of control | [7] 91 % of control | [3] 89 % of control

CC(=O)CC(=O)NC1CCCC1
inactive: [5] 103 % of control | [1] 100 % of control | [6] 100 % of control | [2] 100 % of control | [7] 100 % of control | [3] 100 % of control

NC(=O)c1ccc(OC(F)(F)C(F)Cl)cc1OC(F)(F)C(F)Cl (stereo unspecified)
inactive: [12] 98 % of control | [13] 102 % of control

CCCCC(=O)c1ccc(Cl)cc1
inactive: [1] 103 % of control | [2] 111 % of control | [3] 104 % of control

O=C1c2cccc3c2C2(C45c6c7cccc6C(=O)c6cccc(c64)C(=O)c4cccc(c45)C7=O)c4c1cccc4C(=O)c1cccc(c12)C3=O
inactive: dose: 100.0 mg/kg/injection, schedule: Q01DX009 (ip), vehicle: saline 103 % of control | [12] 94 % of control | dose: 200.0 mg/kg/injection, schedule: Q01DX009 (ip), vehicle: saline 95 % of control | dose: 200.0 mg/kg/injection, schedule: Q04DX003 (ip), vehicle: saline with Tween-80 107 % of control | dose: 400.0 mg/kg/injection, schedule: Q01DX009 (ip), vehicle: saline 95 % of control | [13] 94 % of control
